The record followed here is ChEMBL document CHEMBL1152708, “Deconstructing estradiol: removal of B-ring generates compounds which are potent and subtype-selective estrogen receptor agonists” (Bioorg Med Chem Lett, 2009).

SMILES strings stand for the structures.

Experiment [1] is described as follows: Selectivity ratio of RBA for ERbeta to RBA for ERalpha.
Experiment [2] concerns the target T1, Estrogen receptor (Homo sapiens) (UniProt P03372).
T1 sequence (whole entry): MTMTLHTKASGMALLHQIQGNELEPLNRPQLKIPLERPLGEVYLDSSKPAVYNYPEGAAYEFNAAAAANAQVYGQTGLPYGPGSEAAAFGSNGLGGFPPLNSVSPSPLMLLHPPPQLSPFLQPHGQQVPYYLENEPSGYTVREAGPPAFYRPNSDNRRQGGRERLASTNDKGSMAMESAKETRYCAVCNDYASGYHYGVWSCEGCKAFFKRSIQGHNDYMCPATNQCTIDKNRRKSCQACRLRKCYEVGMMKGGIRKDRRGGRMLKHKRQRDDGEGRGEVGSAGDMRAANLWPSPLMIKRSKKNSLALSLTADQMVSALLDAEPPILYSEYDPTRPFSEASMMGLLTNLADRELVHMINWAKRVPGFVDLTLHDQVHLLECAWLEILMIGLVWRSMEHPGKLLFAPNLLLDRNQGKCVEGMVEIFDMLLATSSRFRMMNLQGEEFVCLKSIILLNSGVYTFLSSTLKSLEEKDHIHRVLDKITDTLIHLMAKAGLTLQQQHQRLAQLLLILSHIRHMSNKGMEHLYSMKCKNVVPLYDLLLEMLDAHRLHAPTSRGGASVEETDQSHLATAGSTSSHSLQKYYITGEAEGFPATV
Put plainly: Displacement of [3H]estradiol form ERalpha assessed as relative binding affinity relative to estradiol. Background: Loss of bound radioactivity is the signal in a displacement assay; it reports binding, not function.

Experiment [3] deals with Estrogen receptor beta (Homo sapiens) (UniProt Q92731). The experiment is described as follows: Displacement of [3H]estradiol form ERbeta assessed as relative binding affinity relative to estradiol.
Sequence of Estrogen receptor beta (Homo sapiens) (Q92731 whole entry): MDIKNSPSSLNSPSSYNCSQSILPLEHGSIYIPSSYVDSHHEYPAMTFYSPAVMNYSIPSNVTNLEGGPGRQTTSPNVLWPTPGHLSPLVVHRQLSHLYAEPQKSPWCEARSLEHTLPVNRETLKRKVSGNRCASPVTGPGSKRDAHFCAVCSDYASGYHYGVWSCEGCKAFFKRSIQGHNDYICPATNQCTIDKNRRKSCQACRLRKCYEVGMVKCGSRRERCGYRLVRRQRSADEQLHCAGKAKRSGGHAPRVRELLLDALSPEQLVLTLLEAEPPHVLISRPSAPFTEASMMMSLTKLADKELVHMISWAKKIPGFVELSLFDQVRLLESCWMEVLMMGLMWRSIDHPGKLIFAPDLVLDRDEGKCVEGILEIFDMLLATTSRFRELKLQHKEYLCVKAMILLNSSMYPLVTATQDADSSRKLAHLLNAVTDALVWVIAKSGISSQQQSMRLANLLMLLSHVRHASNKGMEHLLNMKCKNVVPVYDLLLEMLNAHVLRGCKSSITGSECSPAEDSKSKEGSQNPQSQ
For experiment [4] the target is unchanged. The experiment is described as follows: Activity at ERbeta expressed in CHO cells co-transfected with ERE plasmid assessed as relative transcriptional activation at 10 nM by luciferase reporter assay relative to estradiol. It is filed as cell-based. (In general: A reporter such as luciferase makes a cellular process visible.)
For experiment [5], the target named is T1, Estrogen receptor (Homo sapiens). Put plainly: Activity at ERalpha expressed in CHO cells co-transfected with ERE plasmid assessed as relative transcriptional activation at 10 nM by luciferase reporter assay relative to estradiol. It is filed as cell-based.

As for `C[C@]12CC[C@@H](c3ccc(O)cc3)C[C@@H]1CC[C@@H]2O`, the Selectivity ratio in experiment [1] was 9.8. Besides, the RBA in experiment [2] was 0.06%; in experiment [3], 0.59%.

As for `C[C@]12CC[C@H](c3ccc(O)c(F)c3)C[C@@H]1CC[C@@H]2O`, in experiment [1], the Selectivity ratio was found to be 8.7. Further, the values for the Activity in experiment [4] and in experiment [5] were 14% and 8.3%, respectively. Besides, the RBA in experiment [2] worked out at 1%; in experiment [3] it was 8.7%.

In the case of `C[C@]12CC[C@H](c3cc(F)c(O)c(F)c3)C[C@@H]1CC[C@@H]2O`, the Selectivity ratio in experiment [1] amounted to 7. The results for the RBA in experiment [2] and in experiment [3] were 0.04% and 0.28%, respectively.

In the case of `C[C@]12CC[C@H](c3cc(F)c(O)c(F)c3F)C[C@@H]1CC[C@@H]2O`, the Selectivity ratio in experiment [1] came to 9.1. The RBA in experiment [2] amounted to 0.19%; in experiment [3], 1.73%.

In the case of `C[C@]12CC[C@H](c3ccc(O)cc3Cl)C[C@@H]1CC[C@@H]2O`, the Selectivity ratio in experiment [1] worked out at 3.4. In experiment [2], the RBA came out at 49%.

Take `Cc1cc(O)ccc1[C@H]1CC[C@@]2(C)[C@@H](CC[C@@H]2O)C1`: in experiment [1], the Selectivity ratio was 12. Also, the values for the Activity in experiment [4] and in experiment [5] were 149% and 9.7%, respectively. The figures for the RBA in experiment [2] and in experiment [3] were 2.8% and 33.6%, respectively.

On to `C[C@]12CC[C@H](c3ccc(O)c(F)c3F)C[C@@H]1CC[C@@H]2O`, for which, in experiment [1], the Selectivity ratio amounted to 9.3. The RBA in experiment [2] worked out at 4.6%; in experiment [3], 43%.

As for `C[C@]12CC[C@H](c3cc(F)c(O)cc3F)C[C@@H]1CC[C@@H]2O`, in experiment [1], the Selectivity ratio amounted to 8.7. In addition, the RBA in experiment [2] is 0.38%; in experiment [3], 3.3%.

As to `C=Cc1cc(O)cc2nc(-c3ccc(O)c(F)c3)oc12`, the Selectivity ratio in experiment [1] came out at 226.

On to `C[C@]12CC[C@H](c3ccc(O)cc3F)C[C@@H]1CC[C@@H]2O`, for which the Selectivity ratio in experiment [1] came to 5. In addition, the results for the Activity in experiment [4] and in experiment [5] were 146% and 44%, respectively. The RBA in experiment [2] came out at 27%; in experiment [3] it was 135%.

As to `C[C@]12CC[C@H](c3ccc(O)cc3)C[C@@H]1CC[C@@H]2O`, in experiment [1], the Selectivity ratio was determined as 14. Also, the Activity in experiment [4] is 164%; in experiment [5] it was 4.3%. The RBA stood at 1.5% in experiment [2] and 21.5% in experiment [3].

Turning to `O=c1c(-c2ccc(O)cc2)coc2cc(O)cc(O)c12`, the Selectivity ratio in experiment [1] is 41.
